ChEMBL document CHEMBL6109043, “Advances in the selective c-MET kinase inhibitors: Application of fused [5,6]-Bicyclic nitrogen-containing cores for anticancer drug design” (Eur J Med Chem, 2025)
Values after ≈ are worked out from the molar mass of the structure shown. Each block holds one compound with its values, some of them ahead of it.

Tests used:
[1] = tested on: NCI-H661; test: Antiproliferative activity against human NCI-H661 cells assessed as reduction in cell viability incubated for 72 hrs by SRB assay; conditions: NCI-H661, 72 h
[2] = tested on: NIH3T3; test: Antiproliferative activity against mouse NIH3T3/TRP-Met cells assessed as reduction in cell growth incubated for 72 hrs by SRB assay; conditions: NIH3T3, 72 h
[3] = tested on: SNU1; test: Antiproliferative activity against human SNU1 cells assessed as reduction in cell viability incubated for 72 hrs by SRB assay; conditions: SNU1, 72 h
[4] = Antiproliferative activity against mouse BaF3/TRP-Met cells assessed as reduction in cell growth incubated for 72 hrs by SRB assay; conditions: BaF3, 72 h
[5] = tested on: NIH3T3; test: Antiproliferative activity against mouse NIH3T3 cells assessed as reduction in cell growth incubated for 72 hrs by SRB assay; conditions: NIH3T3, 72 h
[6] = target: Proto-oncogene tyrosine-protein kinase receptor Ret (Homo sapiens, UniProt P07949); test: Inhibition of RET (unknown origin)
[7] = target: Epidermal growth factor receptor (Homo sapiens, UniProt P00533); test: Inhibition of EGFR (unknown origin)
[8] = Antiproliferative activity against mouse BaF3/[…] cells assessed as reduction in cell viability incubated for 72 hrs by Cell-titer glo reagent based assay; format: functional; conditions: BaF3, 72 h
[9] = target: ALK tyrosine kinase receptor (Homo sapiens, UniProt Q9UM73); test: Inhibition of ALK (unknown origin)
[10] = target: T1, Hepatocyte growth factor receptor (Homo sapiens, UniProt P08581); test: Inhibition of c-MET (unknown origin) incubated for 30 mins by ELISA method
[11] = target: Cytochrome P450 3A4 (Homo sapiens, UniProt P08684); test: Inhibition of CYP3A4 in human liver microsome assessed as fold change; format: ADME; conditions: microsomes
[12] = target: T2, CYP3A4 (Homo sapiens, UniProt P08684); test: Inhibition of CYP3A4 in human liver microsomes; format: ADME, Microsome
[13] = target: T2, CYP3A4; test: Inhibition of CYP3A4 (unknown origin); format: ADME
[14] = tested on: HepG2; test: Antiproliferative activity against human HepG2 cells assessed as reduction in cell viability incubated for 72 hrs by MTT assay; format: functional, cell-based; conditions: HepG2, 72 h
[15] = target: T1, Hepatocyte growth factor receptor; test: Inhibition of c-MET (unknown origin) using poly (Glu,Tyr) 4:1 as substrate incubated for 30 mins by ADP-Glo reagent based analysis
[16] = Water solubility of compound at pH 7 incubated for 2 hrs by HPLC analysis; format: physicochemical
[17] = tested on: MKN-45; test: Antiproliferative activity against human MKN-45 cells assessed as reduction in cell viability incubated for 72 hrs by Cell-titer glo luminescent assay; format: functional, cell-based; conditions: MKN-45, 72 h
[18] = tested on: EBC-1; test: Antiproliferative activity against human EBC-1 cells assessed as reduction in cell viability incubated for 72 hrs by Cell-titer glo luminescent assay; format: functional, cell-based; conditions: EBC-1, 72 h
[19] = target: T1, Hepatocyte growth factor receptor; test: Inhibition of c-Met (unknown origin)

T1 sequence (P08581 whole entry): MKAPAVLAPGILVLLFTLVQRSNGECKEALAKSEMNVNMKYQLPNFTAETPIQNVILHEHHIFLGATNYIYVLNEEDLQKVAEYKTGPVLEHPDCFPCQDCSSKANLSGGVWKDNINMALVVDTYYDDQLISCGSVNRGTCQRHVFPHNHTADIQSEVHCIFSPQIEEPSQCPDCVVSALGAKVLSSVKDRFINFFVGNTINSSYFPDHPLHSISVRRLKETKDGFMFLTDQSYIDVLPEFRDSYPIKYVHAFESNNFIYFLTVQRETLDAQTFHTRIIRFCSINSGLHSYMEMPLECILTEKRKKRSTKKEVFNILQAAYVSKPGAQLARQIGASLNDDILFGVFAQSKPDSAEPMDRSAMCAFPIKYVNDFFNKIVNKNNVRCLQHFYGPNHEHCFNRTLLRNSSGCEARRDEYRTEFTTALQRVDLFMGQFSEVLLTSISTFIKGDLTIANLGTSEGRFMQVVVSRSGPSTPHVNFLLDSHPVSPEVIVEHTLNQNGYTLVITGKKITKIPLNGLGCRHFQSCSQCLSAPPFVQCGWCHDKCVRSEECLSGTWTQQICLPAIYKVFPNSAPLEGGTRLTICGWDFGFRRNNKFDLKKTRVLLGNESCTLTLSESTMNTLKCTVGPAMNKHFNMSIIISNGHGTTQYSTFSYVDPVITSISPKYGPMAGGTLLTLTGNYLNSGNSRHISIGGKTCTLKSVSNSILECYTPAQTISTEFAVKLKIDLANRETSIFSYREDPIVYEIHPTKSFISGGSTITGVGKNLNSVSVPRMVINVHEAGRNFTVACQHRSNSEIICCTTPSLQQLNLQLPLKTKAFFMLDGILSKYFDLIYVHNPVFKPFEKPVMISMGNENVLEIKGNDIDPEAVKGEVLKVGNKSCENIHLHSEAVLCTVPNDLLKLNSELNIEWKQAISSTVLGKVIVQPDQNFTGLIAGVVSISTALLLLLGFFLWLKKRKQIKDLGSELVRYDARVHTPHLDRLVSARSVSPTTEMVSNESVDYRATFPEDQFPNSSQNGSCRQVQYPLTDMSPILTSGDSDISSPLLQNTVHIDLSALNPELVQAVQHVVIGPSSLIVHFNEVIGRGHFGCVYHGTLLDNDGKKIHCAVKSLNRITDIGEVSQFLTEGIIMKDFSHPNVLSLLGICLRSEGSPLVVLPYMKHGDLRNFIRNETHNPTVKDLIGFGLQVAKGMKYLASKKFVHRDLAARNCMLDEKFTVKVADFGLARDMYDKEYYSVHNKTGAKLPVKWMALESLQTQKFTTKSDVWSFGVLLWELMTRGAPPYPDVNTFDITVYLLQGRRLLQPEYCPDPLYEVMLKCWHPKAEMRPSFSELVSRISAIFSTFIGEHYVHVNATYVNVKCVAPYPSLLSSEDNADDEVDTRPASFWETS
Sequence of ALK tyrosine kinase receptor (Q9UM73 whole entry): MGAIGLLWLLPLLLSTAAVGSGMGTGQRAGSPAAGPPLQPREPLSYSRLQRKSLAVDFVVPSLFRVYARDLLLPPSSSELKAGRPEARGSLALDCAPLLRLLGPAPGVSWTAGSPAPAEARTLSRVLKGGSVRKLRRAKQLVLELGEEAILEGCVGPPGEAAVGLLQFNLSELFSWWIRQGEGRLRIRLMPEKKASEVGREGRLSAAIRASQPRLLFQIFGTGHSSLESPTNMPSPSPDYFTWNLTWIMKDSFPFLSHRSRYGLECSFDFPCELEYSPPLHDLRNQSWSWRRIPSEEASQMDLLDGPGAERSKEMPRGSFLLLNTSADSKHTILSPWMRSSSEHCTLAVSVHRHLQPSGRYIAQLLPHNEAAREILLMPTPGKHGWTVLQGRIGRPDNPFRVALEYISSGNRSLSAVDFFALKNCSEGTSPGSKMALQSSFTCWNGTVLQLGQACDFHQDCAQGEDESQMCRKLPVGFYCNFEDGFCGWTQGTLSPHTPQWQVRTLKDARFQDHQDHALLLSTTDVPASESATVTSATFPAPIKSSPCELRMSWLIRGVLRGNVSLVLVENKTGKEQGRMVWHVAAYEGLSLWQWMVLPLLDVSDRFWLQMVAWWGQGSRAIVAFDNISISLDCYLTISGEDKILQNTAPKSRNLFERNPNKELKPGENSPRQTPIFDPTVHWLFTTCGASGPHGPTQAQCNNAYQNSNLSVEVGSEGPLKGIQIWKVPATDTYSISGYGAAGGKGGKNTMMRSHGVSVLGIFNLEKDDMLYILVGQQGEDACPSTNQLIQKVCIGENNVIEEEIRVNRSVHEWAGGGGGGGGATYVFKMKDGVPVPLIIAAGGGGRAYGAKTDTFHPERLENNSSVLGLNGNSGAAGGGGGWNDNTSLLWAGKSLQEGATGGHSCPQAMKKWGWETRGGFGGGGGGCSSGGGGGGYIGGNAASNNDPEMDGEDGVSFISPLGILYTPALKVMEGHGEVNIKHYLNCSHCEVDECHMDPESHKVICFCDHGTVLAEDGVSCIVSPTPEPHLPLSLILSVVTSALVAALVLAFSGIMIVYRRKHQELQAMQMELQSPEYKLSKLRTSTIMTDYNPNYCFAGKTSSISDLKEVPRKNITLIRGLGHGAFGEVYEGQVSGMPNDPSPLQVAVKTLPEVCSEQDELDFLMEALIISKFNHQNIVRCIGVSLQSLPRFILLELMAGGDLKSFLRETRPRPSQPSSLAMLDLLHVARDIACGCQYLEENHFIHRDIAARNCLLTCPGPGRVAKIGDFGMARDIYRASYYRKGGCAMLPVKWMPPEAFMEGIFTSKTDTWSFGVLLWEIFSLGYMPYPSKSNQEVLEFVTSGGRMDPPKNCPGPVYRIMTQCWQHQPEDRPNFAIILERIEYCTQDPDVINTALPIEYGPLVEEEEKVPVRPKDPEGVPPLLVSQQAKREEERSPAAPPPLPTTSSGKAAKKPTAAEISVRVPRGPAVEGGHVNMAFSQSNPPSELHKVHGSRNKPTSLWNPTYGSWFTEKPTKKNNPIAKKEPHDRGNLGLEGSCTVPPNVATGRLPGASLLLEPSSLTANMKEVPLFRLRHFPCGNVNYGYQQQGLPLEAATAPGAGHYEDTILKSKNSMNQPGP
Sequence of Epidermal growth factor receptor (P00533 whole entry): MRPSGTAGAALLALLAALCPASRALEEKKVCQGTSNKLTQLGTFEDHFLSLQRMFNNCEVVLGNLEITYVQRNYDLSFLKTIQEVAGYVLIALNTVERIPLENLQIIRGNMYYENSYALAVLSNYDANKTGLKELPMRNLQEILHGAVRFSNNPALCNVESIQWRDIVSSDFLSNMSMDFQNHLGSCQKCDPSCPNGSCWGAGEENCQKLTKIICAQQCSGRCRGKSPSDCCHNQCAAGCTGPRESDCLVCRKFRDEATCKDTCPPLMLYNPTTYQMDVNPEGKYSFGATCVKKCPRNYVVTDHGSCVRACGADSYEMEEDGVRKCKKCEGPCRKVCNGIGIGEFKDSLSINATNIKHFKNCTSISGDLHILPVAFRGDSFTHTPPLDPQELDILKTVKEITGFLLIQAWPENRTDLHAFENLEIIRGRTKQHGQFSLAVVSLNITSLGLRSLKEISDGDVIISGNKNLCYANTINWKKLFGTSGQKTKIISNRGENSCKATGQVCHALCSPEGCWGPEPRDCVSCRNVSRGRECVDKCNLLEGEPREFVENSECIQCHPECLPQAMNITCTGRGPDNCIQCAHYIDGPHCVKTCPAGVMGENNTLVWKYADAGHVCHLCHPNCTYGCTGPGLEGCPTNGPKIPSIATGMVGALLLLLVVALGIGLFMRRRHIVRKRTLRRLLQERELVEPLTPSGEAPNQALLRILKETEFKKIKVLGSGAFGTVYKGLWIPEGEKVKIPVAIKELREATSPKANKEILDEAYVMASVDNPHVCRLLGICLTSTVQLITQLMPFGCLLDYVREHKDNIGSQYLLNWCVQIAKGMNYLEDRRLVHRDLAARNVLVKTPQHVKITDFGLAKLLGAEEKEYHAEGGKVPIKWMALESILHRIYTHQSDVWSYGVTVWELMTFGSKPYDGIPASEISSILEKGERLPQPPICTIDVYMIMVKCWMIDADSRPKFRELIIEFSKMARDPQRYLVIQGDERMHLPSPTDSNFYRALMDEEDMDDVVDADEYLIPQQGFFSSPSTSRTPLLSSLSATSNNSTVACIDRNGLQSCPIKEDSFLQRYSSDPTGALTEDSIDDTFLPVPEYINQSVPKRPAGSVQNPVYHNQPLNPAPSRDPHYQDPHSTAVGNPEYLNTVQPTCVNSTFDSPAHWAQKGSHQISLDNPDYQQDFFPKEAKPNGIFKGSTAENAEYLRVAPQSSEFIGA
T2 sequence (P08684 whole entry): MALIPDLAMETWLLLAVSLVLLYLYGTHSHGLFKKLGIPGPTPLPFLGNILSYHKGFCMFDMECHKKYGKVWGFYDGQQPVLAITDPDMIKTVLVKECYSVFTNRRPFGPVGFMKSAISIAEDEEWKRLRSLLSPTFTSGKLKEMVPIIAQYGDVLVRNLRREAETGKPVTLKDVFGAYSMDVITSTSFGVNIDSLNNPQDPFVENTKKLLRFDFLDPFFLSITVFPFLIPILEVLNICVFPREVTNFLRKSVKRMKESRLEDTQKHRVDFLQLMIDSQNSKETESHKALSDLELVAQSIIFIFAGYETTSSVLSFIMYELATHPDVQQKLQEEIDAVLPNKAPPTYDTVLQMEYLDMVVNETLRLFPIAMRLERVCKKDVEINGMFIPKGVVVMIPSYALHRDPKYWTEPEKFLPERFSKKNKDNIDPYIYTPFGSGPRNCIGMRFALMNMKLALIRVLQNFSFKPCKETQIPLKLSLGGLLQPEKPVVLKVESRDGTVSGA
Sequence of Cytochrome P450 3A4 (P08684 whole entry): as above

IC50 [1]: > 50000 nM | IC50 [3]: > 50000 nM
SMILES: COc1ccc2c(OCc3nnc4ncc(-c5ccccc5)nn34)ccnc2c1
IC50 [2]: 79.5 nM | IC50 [4]: 23.7 nM | IC50 [5]: > 50000 nM

IC50 [6]: 12300 nM | IC50 [7]: 15600 nM | IC50 [9]: 13500 nM | IC50 [10]: 62 nM
SMILES: Clc1ccc(-c2cn3cccc(COc4nnc5ccc(Cl)nn45)c3n2)c(Cl)c1
IC50 [8]: 271 nM

fold change (FC) [11]: > 1 | IC50 [12]: > 50000 nM | IC50 [13]: > 50000 nM
SMILES: COc1ccc2c(NCc3nnc4ccc(-c5ccccc5)nn34)ccnc2c1

fold change (FC) [11]: 0.64
SMILES: COc1ccc2c(SCc3nnc4ccc(-c5ccccc5)nn34)ccnc2c1

IC50 [14]: 740 nM | IC50 [15]: 4.6 nM
SMILES: Cc1ccc(-c2cnc3nnc(SCc4ccncc4)n3n2)cc1

IC50 [14]: 710 nM | IC50 [15]: 6.4 nM
SMILES: Brc1ccc(-c2cnc3nnc(SCc4cccnc4)n3n2)cc1

solubility at 2 h [16]: 3.6 µg/mL (≈ 10.7 µM)
SMILES: Oc1ccc(-c2cnc3nnc(SCc4ccncc4)n3n2)cc1

IC50 [17]: 1980 nM
SMILES: Cc1[nH]c2ncc(-c3cnn(C4CCNCC4)c3)cc2c1C(C)c1c(Cl)ccc(F)c1Cl (centres undefined)
IC50 [18]: 2380 nM

IC50 [14]: 1020 nM | IC50 [15]: 5.6 nM
SMILES: Cc1ccc(-c2cnc3nnc(SCc4cccnc4)n3n2)cc1

IC50 [17]: 6520 nM
SMILES: CC(c1c(Cl)ccc(F)c1Cl)c1c(Cl)[nH]c2ncc(-c3cnn(C4CCNCC4)c3)cc12 (centres undefined)
IC50 [18]: 9220 nM

solubility at 2 h [16]: 203 µg/mL (≈ 636 µM) | IC50 [14]: 3060 nM | IC50 [15]: 52 nM
SMILES: Oc1ccc(-c2cnc3nnc(NCc4ccncc4)n3n2)cc1

IC50 [6]: 12200 nM | IC50 [7]: 14200 nM | IC50 [9]: 11300 nM | IC50 [10]: 53 nM
SMILES: Clc1ccc(Cl)c(-c2cn3cccc(COc4nnc5ccc(Cl)nn45)c3n2)c1
IC50 [8]: 253 nM

IC50 [19]: 4.4 nM
SMILES: COc1ccc2c(OCc3nnc4ccc(-c5ccccc5)nn34)ccnc2c1 [AMG-208]
